Drawing on US20180353462A1, “[…] AGENTS […] FLAVONOID DERIVATIVES TARGETING KINASES, SIRTUINS AND ONCOGENIC AGENTS FOR THE TREATMENT OF CANCERS” (priority 2015, published 2018), this text covers IC50 for four molecules.

The term IC50 denotes the concentration that inhibits the measured activity by half.

One assay has as its system A498 (Kidney). The experiment in a line: WST-1 anticancer cell proliferation assay, A498. It counts as cell-based. The conditions noted are these: 72 hours. Here is the method:
(§1) Bioactivity of the above-described compounds has been verified by an anticancer cell proliferation assay using the WST-1 (4-[3-(4-iodophenyl)-2-(4-nitrophenyl)-2H-5-tetrazolio]-1, 3-benzene disulfonate) colorimetric assay by Roche Life Sciences®. Anticancer activity was tested against several standard cancer cell lines including brain, breast, Kaposi sarcoma, leukemia, lung, melanoma, tenosynovial giant cell tumor, ovarian, pancreatic, colon and prostate cancer. Cells were trypsinized and plated into 96 well plates in 50 μl of media and incubated overnight. The next day approximately 18 hours after plating, 50 μl of media containing the required flavonoid-based pharmaceutical composition was added per well. Cells were plated at a density so that 72 hours post drug addition, the cells will be in log phase (500)-2000 cells/well). The compounds and extracts were solubilized in Dimethyl sulfoxide (DMSO). The cells are allowed to proliferate for 72 hours 37° C. in humidified atmosphere of 5% CO2. The experiment is terminated using WST-1 (Roche®) 10 μl per well and absorbance is read at 450 nm %690 nm. The effect of drugs on growth is assessed as percent of cell viability. The IC50 values were determined from the extract dose versus control growth curves using Graphpad Prism® software. All experiments were carried out in duplicate and the mean results determined.

Another assay deals with COLO-205 (Colon). The experiment in a line: WST-1 anticancer cell proliferation assay, COLO-205. It counts as cell-based. The conditions noted are these: 72 hours. As for the experimental part: as §1
Background: Tetrazolium assays rely on reduction of a dye to a coloured formazan, in cell work by metabolically active cells.

Another assay relates to MCF-7 (Breast). The experiment in a line: WST-1 anticancer cell proliferation assay, MCF-7. It counts as cell-based. To be noted: 72 hours. As for the experimental part:
as §1

Another assay addresses BRD2 (Homo sapiens, UniProt P25440). In words: Inhibition of bromodomains, BRD2. It counts as binding. To be noted: Table 3 Bromodomain. The source says:
(§2) Inhibition of Sirtuins, Matrix Metalloproteinase, Bromodomains was Also Confirmed Using Standard Protocols and the Results are Present in Table 2.

The test system of a further assay is CMK (leukemia). In words: WST-1 anticancer cell proliferation assay, CMK. It counts as cell-based. The conditions noted are these: 72 hours. As for the experimental part: as §1
In another assay the test system is HC-1 (Leukemia). The experiment in a line: WST-1 anticancer cell proliferation assay, HC-1. The class given is cell-based. The conditions noted are these: 72 hours. Here is the method:
as §1

The next assay relates to HeLa (cervical). In words: WST-1 anticancer cell proliferation assay, HeLa. The class given is cell-based. To be noted: 72 hours. As for the experimental part: as §1
A further assay relates to MOLT-4 (Leukemia). The experiment in a line: WST-1 anticancer cell proliferation assay, MOLT-4. It counts as cell-based. The conditions noted are these: 72 hours. As for the experimental part: as §1
A further assay deals with MMP-3 (Homo sapiens, UniProt P08254). In words: Inhibition of matrix metalloproteinase, MMP-3. To be noted: Table 3 Matrix metalloproteinase. The class given is biochemical.
Description: as §2

Another assay concerns the target MMP-9 (Homo sapiens, UniProt P14780). The experiment in a line: Inhibition of matrix metalloproteinase, MMP-9. The conditions noted are these: Table 3 Matrix metalloproteinase. It counts as biochemical.
Description: as §2

For a further assay, the target named is BCL-2 (Homo sapiens, UniProt P10415). The experiment in a line: BCL-2 inhibition. It counts as binding. The conditions noted are these: Table 3.
Chain of BCL-2 (P10415 whole entry): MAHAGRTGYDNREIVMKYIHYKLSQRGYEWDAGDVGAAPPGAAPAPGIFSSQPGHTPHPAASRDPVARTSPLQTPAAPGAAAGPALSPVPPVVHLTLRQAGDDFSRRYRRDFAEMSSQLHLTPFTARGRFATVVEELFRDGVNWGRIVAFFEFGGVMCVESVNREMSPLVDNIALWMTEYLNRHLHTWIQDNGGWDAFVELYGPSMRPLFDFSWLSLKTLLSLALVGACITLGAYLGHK

Chain of BRD2 (P25440 whole entry): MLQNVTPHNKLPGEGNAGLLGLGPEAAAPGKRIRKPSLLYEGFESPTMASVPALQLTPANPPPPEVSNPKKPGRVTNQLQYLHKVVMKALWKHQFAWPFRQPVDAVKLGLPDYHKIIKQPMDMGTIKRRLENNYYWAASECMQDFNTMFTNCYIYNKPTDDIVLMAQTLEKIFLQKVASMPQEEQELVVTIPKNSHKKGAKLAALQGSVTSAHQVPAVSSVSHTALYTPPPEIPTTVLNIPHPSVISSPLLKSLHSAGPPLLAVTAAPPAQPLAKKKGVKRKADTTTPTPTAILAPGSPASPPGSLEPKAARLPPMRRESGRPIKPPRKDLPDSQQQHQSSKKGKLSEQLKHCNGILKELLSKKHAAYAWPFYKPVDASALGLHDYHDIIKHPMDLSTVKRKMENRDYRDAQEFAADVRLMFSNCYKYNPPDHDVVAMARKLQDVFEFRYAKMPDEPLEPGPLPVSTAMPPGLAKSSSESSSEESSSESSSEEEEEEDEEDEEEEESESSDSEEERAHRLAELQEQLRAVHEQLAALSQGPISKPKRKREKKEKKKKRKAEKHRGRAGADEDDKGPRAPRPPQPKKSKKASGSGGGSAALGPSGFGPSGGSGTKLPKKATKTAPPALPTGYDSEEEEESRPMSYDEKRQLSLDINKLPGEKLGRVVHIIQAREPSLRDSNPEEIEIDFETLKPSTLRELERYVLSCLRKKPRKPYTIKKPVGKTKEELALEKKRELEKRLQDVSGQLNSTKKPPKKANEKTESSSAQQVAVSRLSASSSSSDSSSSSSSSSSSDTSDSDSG
Chain of MMP-9 (P14780 94-707): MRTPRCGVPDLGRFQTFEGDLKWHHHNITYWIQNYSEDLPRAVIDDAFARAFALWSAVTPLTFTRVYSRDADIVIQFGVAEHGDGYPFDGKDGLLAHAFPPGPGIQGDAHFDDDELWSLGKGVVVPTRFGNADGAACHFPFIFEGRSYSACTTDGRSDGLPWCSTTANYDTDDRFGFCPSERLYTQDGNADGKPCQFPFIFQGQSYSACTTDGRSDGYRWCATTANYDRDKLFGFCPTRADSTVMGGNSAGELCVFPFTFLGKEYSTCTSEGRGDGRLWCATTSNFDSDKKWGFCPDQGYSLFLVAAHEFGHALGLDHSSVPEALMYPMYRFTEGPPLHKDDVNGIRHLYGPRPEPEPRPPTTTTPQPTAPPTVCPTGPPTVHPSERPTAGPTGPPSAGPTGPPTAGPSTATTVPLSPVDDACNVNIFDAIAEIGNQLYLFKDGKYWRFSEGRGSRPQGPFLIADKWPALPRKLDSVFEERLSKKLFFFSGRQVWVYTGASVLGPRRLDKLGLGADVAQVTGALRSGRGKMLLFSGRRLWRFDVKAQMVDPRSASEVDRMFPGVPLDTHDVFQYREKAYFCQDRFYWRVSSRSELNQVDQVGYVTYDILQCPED
Chain of MMP-3 (P08254 100-477): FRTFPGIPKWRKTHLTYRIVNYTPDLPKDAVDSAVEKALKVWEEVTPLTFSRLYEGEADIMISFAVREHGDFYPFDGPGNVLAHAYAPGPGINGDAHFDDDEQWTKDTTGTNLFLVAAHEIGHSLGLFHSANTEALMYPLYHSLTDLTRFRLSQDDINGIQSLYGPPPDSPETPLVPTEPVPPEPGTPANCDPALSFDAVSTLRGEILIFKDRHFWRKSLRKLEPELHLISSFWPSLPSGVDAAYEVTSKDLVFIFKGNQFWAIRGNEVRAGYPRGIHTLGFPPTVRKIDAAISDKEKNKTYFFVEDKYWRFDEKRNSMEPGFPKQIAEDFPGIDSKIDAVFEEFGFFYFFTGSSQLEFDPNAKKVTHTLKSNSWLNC

For the molecule `COc1cc(-c2cc(=O)c3c(O)c(C/C=C(\C)CCC=C(C)C)c(O)cc3o2)ccc1O` [FBL-03A], the IC50 was found to be 17 µM in the assay on A498 (Kidney), 27 µM in the assay on COLO-205 (Colon) and 17 µM with MCF-7 (Breast).
For the molecule `COc1cc(-c2cc(=O)c3c(O)c(CC=C(C)C)c(O)cc3o2)ccc1O` [FBL-03B], the IC50 amounted to 9.52 µM at BRD2; 11.6 µM in the assay with CMK (leukemia); 29.7 µM in the assay with HC-1 (Leukemia); 10.4 µM in the assay on HeLa (cervical); 13.2 µM in the assay with MOLT-4 (Leukemia).
For the molecule `COc1cc(-c2cc(=O)c3c(O)cc(O)c(C/C=C(\C)CCC=C(C)C)c3o2)ccc1O` [FBL-03C], the concentration for half-maximal inhibition (IC50) in the assay with A498 (Kidney) was found to be 14 µM; with COLO-205 (Colon), 17 µM; in the assay on MCF-7 (Breast), 12 µM.
With `COc1cc(-c2cc(=O)c3c(O)cc(O)c(CC=C(C)C)c3o2)ccc1O` [FBL-03G], the IC50 on BRD2 was found to be 12 µM; on MMP-3 it was 66.3 µM; at MMP-9, 85.4 µM; against BCL-2, 2.49 µM; with CMK (leukemia), 1.78 µM; in the assay on HC-1 (Leukemia), 5 µM. Moreover, the IC50 in the assay with HeLa (cervical) amounted to 2.53 µM; in the assay with MOLT-4 (Leukemia), 20 µM.
